{
  "source": "patent US11060715B2",
  "about": "“Ex vivo proliferation of epithelial cells” (PROPAGENIX INC., priority 2015, dated 2021)",
  "key": {"[1]": {"system": "bronchial epithelial cells", "assay": "Effect of calcium content on bronchial epithelial cells in KSFM plus A83-01 and Y-27632 (morphology, TEER)", "assay_type": "cell-based, human", "experimental": "Effects of culture media calcium content on cell behavior were assessed for epithelial cells cultured in KSFM plus A83-01 and Y-27632. Human bronchial epithelial cells were grown KSFM (with 90 μM CaCl2) plus A83-01 and Y-27632. These cells dispersed throughout the culture vessel (FIG. 28, left panel), and few cells formed intercellular connections, even when they were in close proximity to each other. […] Cells in the center of the patches tended to pile up, and boundaries between individual cells generally were not discernable. In certain instances, abnormal elongations formed between clusters.\nIn a further investigation, effects of culture media calcium content on intercellular junctions was assessed for bronchial epithelial cells cultured in KSFM plus A83-01 and Y-27632. Intercellular junctions were assessed according to paracellular flow of ions as measured by trans-epithelium electric resistance (TEER). […] Bronchial epithelial cells were plated on porous membrane support ([…], Corning, 354474) and maintained for 7 days when the membrane was covered with culture medium (submerged phase, grayed box in FIG. 29, top panel). On day 8, the medium was removed from the apical side of the membrane, and the cells were exposed to air to induce further differentiation. […]"}, "[2]": {"system": "human foreskin keratinocytes (HFK)", "assay": "Differentiation of keratinocytes at high CaCl2 in KSFM+A+Y (ZO-1 staining, TEER, H&E)", "assay_type": "cell-based", "experimental": "Specifically, late passage human foreskin keratinocytes (HFK) cultured in KSFM supplemented with 1 μM A83-01 and 5 μM Y-27632 (KSFM+A+Y) at low CaCl2 (90 μM) were allowed to reach confluence. The cells remained in the KSFM+A+Y conditions and the CaCl2 concentration was raised to 1.5 mM to induce differentiation.\nKeratinocytes established increasing transmembrane electric resistance (TEER) over time in air-liquid-interface differentiation, in the presence of high concentration (1.5 mM) of CaCl2 in KSFM plus A 83-01 and Y-27632. Specifically, human foreskin keratinocytes (HFK) previously cultured in KSFM supplemented with 1 μM A83-01 and 5 μM Y-27632 (KSFM+A+Y) at low CaCl2 (90 μM) were plated on a porous membrane support ([…], Corning, 354474) and maintained for 14 days. The cells were covered by culture medium (KSFM+A+Y and 1.5 mM of CaCl2) for the first day (submerged phase, grayed box in FIG. 34) and exposed to air for the remaining days.\nKeratinocytes formed an epidermal-like structure over time in air-liquid-interface differentiation, in the presence of high concentration (1.5 mM) of CaCl2 in KSFM plus A 83-01 and Y-27632. Specifically, human foreskin keratinocytes (HFK) previously cultured in KSFM supplemented with 1 μM A83-01 and 5 μM Y-27632 (KSFM+A+Y) at low CaCl2 (90 μM) were plated on a porous membrane support ([…], Corning, 354474) and maintained for 14 days. […]"}},
  "data": [
    {"smiles": "[Ca+2].[Cl-].[Cl-]", "note": "[CaCl2]", "values": [
      {"measurement": "cell behavior (morphology)", "setting": "[1]; 1 mM CaCl2 in KSFM plus A83-01 and Y-27632", "result": "aggregate into tight clusters"},
      {"measurement": "trans-epithelium electric resistance (TEER)", "setting": "[1]; high concentration (1 mM) in KSFM plus A 83-01 and Y-27632", "result": "increasing TEER"},
      {"measurement": "epidermal-like structure formation (H&E)", "setting": "[2]; 1.5 mM CaCl2 in KSFM+A+Y, air-liquid-interface, day 14", "result": "differentiated into multi-layer structures"},
      {"measurement": "tight junction formation (ZO-1 staining)", "setting": "[2]; CaCl2 raised to 1.5 mM in KSFM+A+Y", "result": "Tight junction formation was observed"}
    ]}
  ]
}
